pIC50: −log10 of the molar value.
Target: T1, p101/p110γ protein (PI3Kγ) (Homo sapiens, UniProt P48736)
T1 construct: HA; made in house; host or cells: Spodoptera frugiperda (Sf9) cells, baculovirus coinfection
Assay: PI3Kγ in vitro kinase assay
Assay type: biochemical
Settings: purified recombinant p101/p110γ with G protein β1/γ2 subunits, 20 μM ATP, 25 μM PIP2, 20 minutes at room temperature
Experimental: Spodtera frugiperda cells, grown in ESF921 media, were coinfected with baculovirus expressing a glu-tagged pO1 and baculovirus expressing an HA-tagged p110γ, at a 3:1 ratio of p101 baculovirus to p110γ baculovirus. Sf9 cells were grown to 1×10^7 total cells/mL in 10 L bioreactors and harvested 48-72 hours post infection. Samples of infected cells were then tested for expression of p101/p110γ PI3 kinase by immunoprecipitation and Western Blot analysis methods (see below).
To purify PI3Kγ, 4 volumes of room temperature hypotonic lysis buffer (1 mM MgCl2, 1 mM DTT, 5 mM EGTA, 1 mM Pefabloc, 0.5 μM aprotinin, 5 μM leupeptin, 2 μM pepstatin, 5 μM E64, pH 8) per gram of cell paste, was poured onto frozen cell pellets with stirring, then lysed in a nitrogen “bomb” at 400 psi (599HC T316, Parr Instrument Co, Moline, Ill.). NaCl was added to 150 mM, and sodium cholate was added to 1% and mixed for another 45 minutes. The lysates were clarified by centrifugation for 25 minutes at 14,000 rpm. The lysates were then loaded over anti-glu-linked Protein-G Sepaharose beads (Covance Research Products, Richmond, Calif.) using 20 mL resin/50 g cell paste. The column was washed with 15 volumes of wash buffer (1 mM DTT, 0.2 mM EGTA, 1 mM Pefabloc, 0.5 μM aprotinin, 5 μM leupeptin, 2 μM pepstatin, 5 μM E64, 150 mM NaCl, 1% sodium cholate, pH 8). PI3Kγ was eluted with 6 column volumes of wash buffer that contain 100 μg/mL of a peptide that competes for binding of the glu tag. The column fractions with the eluted protein (determined by taking OD280 readings) were collected and dialyzed in 0.2 mM EGTA, 1 mM DTT, 1 mM Pefabloc, 5 μM leupeptin, 0.5% sodium cholate, 150 mM NaCl, and 50% glycerol, pH 8. The fractions were stored at −80° C. until further use.
Spodtera frugiperda cells were coinfected with baculovirus expressing a glu-tagged G protein β1 and baculovirus expressing a G protein β2, at a 1:1 ratio of glu-tagged G protein β1 baculovirus to G protein β2 baculovirus. Sf9 cells are grown in 10 L bioreactors and harvested 48-72 hours post infection. Samples of infected cells were tested for G protein β1/β2 expression by Western Blot analysis, as described below. Cell lysates were homogenized and loaded onto a column of glu-tagged beads as in Biological Example 1 and competed off the column with a glu peptide and processed as described in Biological Example 1.
The inhibitory properties of the compounds in Table 1 were assayed in an in vitro PI3K assay. In a 96-well polypropylene plate, each well was spotted with 2 μL of 50 times the desired final concentration of compound in DMSO. Purified recombinant p101/p110γ protein (0.03 μg; ˜2.7 nM) and G protein β1/γ2 subunits (0.09 μg; ˜57.7 nM) for each reaction was combined in the assay buffer (30 mM HEPES, 100 mM NaCl, 1 mM EGTA, and 1 mM DTT). ATP and [γ-^32P-ATP] (0.09 μCi) were added to this mixture so that the final ATP concentration in the reaction was 20 μM. Lipid micelles were formed by sonicating phosphatidylinositol4,5-diphosphate (PIP2), phosphatidylethanolamine (PE), and Na-cholate in the assay buffer for 10 minutes, adding MgCl2 and incubating on ice for 20 minutes, for final concentrations of 25 μM PIP2, 300 μM PE, 0.02% Na-cholate, and 10 mM MgCl2 in the reaction. The reactions were started by adding equal volumes lipid and enzyme mixture in a total volume of 50 μL, allowed to run for 20 minutes at room temperature, and stopped with 100 μL 75 mM H3PO4. The lipid product was transderred to a glass fiber filter plate and washed with 75 mM H3PO4 severa; times. The presence of radioactive lipid product (PIP3) was measured by adding Wallac Optiphase mix to each well and counting in a Wallac 1450 Trilux plate reader (perkinElmer Life Sciences Inc., Boston, Mass. 02118). The IC50 for each compound tested is reported in μM in Table 1: […]

T1 sequence (P48736 whole entry, species assumed): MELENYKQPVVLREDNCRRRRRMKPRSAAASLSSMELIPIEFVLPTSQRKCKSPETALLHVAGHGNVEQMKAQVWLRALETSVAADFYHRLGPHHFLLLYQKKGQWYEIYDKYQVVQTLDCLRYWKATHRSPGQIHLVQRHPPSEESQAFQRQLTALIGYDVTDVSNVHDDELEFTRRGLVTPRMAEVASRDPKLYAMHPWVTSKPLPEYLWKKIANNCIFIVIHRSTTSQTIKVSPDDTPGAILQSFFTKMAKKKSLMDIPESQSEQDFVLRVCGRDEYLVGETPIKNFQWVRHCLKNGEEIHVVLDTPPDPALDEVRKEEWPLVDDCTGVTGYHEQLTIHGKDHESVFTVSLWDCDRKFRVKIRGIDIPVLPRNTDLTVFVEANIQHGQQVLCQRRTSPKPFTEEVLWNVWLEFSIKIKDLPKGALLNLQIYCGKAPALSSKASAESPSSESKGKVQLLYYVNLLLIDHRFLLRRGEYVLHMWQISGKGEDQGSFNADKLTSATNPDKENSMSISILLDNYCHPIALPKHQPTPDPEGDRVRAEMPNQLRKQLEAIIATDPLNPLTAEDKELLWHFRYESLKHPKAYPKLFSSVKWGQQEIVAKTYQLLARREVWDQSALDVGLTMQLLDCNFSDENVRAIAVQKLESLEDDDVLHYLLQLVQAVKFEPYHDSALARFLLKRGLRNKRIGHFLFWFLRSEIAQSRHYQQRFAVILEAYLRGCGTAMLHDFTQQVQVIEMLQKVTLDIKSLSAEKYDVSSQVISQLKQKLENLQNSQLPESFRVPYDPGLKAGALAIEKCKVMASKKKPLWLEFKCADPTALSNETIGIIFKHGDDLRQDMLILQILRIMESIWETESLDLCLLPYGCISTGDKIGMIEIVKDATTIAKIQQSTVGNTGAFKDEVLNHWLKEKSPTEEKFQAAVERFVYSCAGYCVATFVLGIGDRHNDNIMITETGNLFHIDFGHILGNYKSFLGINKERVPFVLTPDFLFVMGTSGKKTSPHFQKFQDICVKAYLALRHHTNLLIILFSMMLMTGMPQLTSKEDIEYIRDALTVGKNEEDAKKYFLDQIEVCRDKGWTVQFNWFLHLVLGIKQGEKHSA
T1 sequence (Q8WYR1 whole entry partner, species assumed): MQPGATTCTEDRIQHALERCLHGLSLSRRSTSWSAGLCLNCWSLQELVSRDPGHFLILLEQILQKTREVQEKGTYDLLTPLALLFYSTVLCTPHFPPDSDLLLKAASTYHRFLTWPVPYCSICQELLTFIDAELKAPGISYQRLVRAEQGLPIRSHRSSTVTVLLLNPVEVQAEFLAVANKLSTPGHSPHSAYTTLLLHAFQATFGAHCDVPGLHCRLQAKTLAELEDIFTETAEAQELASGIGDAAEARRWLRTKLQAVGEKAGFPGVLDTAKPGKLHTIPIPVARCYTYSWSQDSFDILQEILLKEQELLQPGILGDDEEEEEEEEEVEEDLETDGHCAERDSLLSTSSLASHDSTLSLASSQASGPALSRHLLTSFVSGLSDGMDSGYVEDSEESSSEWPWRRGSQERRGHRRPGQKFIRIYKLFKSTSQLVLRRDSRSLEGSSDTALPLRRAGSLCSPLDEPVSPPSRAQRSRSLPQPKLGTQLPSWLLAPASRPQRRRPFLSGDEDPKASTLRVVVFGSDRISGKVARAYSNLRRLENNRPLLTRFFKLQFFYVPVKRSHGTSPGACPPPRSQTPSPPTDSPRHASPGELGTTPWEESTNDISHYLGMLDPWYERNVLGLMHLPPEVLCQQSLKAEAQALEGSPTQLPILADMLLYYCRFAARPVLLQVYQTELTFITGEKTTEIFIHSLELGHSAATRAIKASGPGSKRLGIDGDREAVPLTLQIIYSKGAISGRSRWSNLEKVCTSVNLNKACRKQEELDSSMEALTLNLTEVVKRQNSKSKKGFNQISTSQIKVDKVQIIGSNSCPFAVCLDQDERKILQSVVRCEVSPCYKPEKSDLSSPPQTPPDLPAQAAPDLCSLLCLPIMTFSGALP

Row | Structure (SMILES) | pIC50
1 | COc1ccc2sc(C(=O)Nc3nnn[nH]3)c(SCC3CCCCC3)c2c1 [Example 1, 3-Cyclohexylmethylsulfanyl-5-methoxy-benzo[b]thiophene-2-carboxylic acid (1H-tetrazol-5-yl)-amide] | 7.04
2 | COc1cc2sc(C(=O)Nc3nnn[nH]3)c(SCC3CCCCC3)c2cc1OC [Example 2, 3-cyclohexylmethylsulfanyl-5,6-dimethoxy-benzo[b]thiophene-2-carboxylic acid (1H-tetrazol-5-yl)-amide] | 5.42
3 | COc1ccc2sc(C(=O)Nc3nnn[nH]3)c(SC3CCCC3)c2c1 [Example 3, 3-cyclopentylsulfanyl-5-methoxy-benzo[b]thiophene-2-carboxylic acid (1H-tetrazol-5-yl)-amide] | 5.92
4 | COc1ccc2sc(C(=O)Nc3nnn[nH]3)c(SC3CCCCC3)c2c1 [Example 4, 3-cyclohexylsulfanyl-5-methoxy-benzo[b]thiophene-2-carboxylic acid (1H-tetrazol-5-yl)-amide] | 6.42
5 | COc1cc2sc(C(=O)Nc3nnn[nH]3)c(SC3CCCC3)c2cc1OC [Example 5, 3-cyclopentylsulfanyl-5,6-dimethoxy-benzo[b]thiophene-2-carboxylic acid (1H-tetrazol-5-yl)-amide] | 6.60
6 | COc1cc2sc(C(=O)Nc3nnn[nH]3)c(SC3CCCCC3)c2cc1OC [Example 6, 3-Cyclohexylsulfanyl-5,6-dimethoxy-benzo[b]thiophene-2-carboxylic acid (1H-tetrazol-5-yl)-amide] | 6.92
7 | COc1cc2sc(C(=O)Nc3nnn[nH]3)c(SC3CCCC3)c2cc1C [Example 7, 3-Cyclopentylsulfanyl-6-methoxy-5-methyl-benzo[b]thiophene-2-carboxylic acid (1H-tetrazol-5-yl)-amide] | 6.93
8 | COc1cc2sc(C(=O)Nc3nnn[nH]3)c(SC3CCCCC3)c2cc1C [Example 8, 3-Cyclohexylsulfanyl-6-methoxy-5-methyl-benzo[b]thiophene-2-carboxylic acid (1H-tetrazol-5-yl)-amide] | 7.33
9 | CCOc1ccc2sc(C(=O)Nc3nnn[nH]3)c(SC3CCCC3)c2c1 [Example 9, 3-Cyclopentylsulfanyl-5-ethoxy-benzo[b]thiophene-2-carboxylic acid (1H-tetrazol-5-yl)-amide] | 5.67
10 | CCOc1ccc2sc(C(=O)Nc3nnn[nH]3)c(SC3CCCCC3)c2c1 [Example 10, 3-Cyclohexylsulfanyl-5-ethoxy-benzo[b]thiophene-2-carboxylic acid (1H-tetrazol-5-yl)-amide] | 5.81
11 | COc1cc2c(SC3CCCCC3)c(C(=O)Nc3nnn[nH]3)sc2cc1C [Example 11, 3-Cyclohexylsulfanyl-5-methoxy-6-methyl-benzo[b]thiophene-2-carboxylic acid (1H-tetrazol-5-yl)-amide] | 7.46
12 | COCc1cc2sc(C(=O)Nc3nnn[nH]3)c(SC3CCCCC3)c2cc1OC [Example 12, 3-Cyclohexylsulfanyl-5-methoxy-6-methoxymethyl-benzo[b]thiophene-2-carboxylic acid (1H-tetrazol-5-yl)-amide] | 6.31
13 | CCOCc1cc2sc(C(=O)Nc3nnn[nH]3)c(SC3CCCCC3)c2cc1OC [Example 13, 3-Cyclohexylsulfanyl-6-ethoxymethyl-5-methoxy-benzo[b]thiophene-2-carboxylic acid (1H-tetrazol-5-yl)-amide] | 6.76
14 | COc1cc2c(SC3CCCCC3)c(C(=O)Nc3nnn[nH]3)sc2cc1COCc1ccccc1 [Example 14, 6-Benzyloxymethyl-3-cyclohexylsulfanyl-5-methoxy-benzo[b]thiophene-2-carboxylic acid (1H-tetrazol-5-yl)-amide] | 6.19
15 | COc1cc2sc(C(=O)Nc3nnn[nH]3)c(SCC3CC3)c2cc1OC [Example 15, 3-Cyclopropylmethylsulfanyl-5,6-dimethoxy-benzo[b]thiophene-2-carboxylic acid (1H-tetrazol-5-yl)-amide] | 6.61
